Key:
[1] = test system: blood lymphocytes; assay: Zinc dose response: lymphocyte response to mitogen PHA (thymidine uptake, 72 h culture); format: in vivo, human; settings: for Lymphocyte response to PHA (stimulation index): adults, age 20-50 years
Procedure: The basic concept underlying the assessment of the most optimum nutrient amounts for a given age group uses the principle of “dose-response graphs”. At least four groups of individuals were provided with various amounts of a given nutrient and their immune responses were measured using established and accepted techniques. The amount of a nutrient that gave the best response was considered the optimum amount. Dose response graphs were determined for all vitamins and trace elements considered essential for human health, particularly immunity.
Data for the dose response chart for zinc in a group of 20 to 50 year old adults is shown in FIG. 1, with the total amount of zinc taken is shown for each group. To determine the magnitude of immune response, an aliquot of blood was withdrawn from each subject in the study, blood lymphocytes were separated, washed and mixed with the mitogen phytohemagglutinin (PHA) in previously determined optimum amount. The optimum amount of PHA used in the experiments was predetermined by a set of dose response graphs using lymphocytes of a healthy donor and four different concentrations of PHA. After culture in a sterile environment for 72 hours, the cells were washed and mixed with radioactive thymidine. The same steps were undertaken in a control sample in which only the culture medium was used, not PHA. The cells were washed and radioactivity determined.
Dietary intake of zinc was calculated based on three 24-hour recalls and by the food frequency questionnaire methods.

[2] = in vivo; cited from earlier work

Row | Structure (SMILES) | immune response ([1]; 12 mg of zinc intake, in combination with zinc from a balanced diet) | Lymphocyte response to PHA (stimulation index) ([1]; supplemental zinc 12 mg) | Lymphocyte response to PHA (stimulation index) ([1]; supplemental zinc 25 mg) | Lymphocyte response to PHA (stimulation index) ([1]; supplemental zinc 50 mg) | biologic half-life in the body [2]
1 | [Zn] [zinc] | best immune response | 78 | 48 | 41 | –
2 | Cc1ncc(C[n+]2csc(CCO)c2C)c(N)n1 [Thiamin] | – | – | – | – | about 15 days

— US20050281889A1, “Nutritional supplement for adults” (priority 2004, published 2005)
